Experimental data reported in patent US20250295646A1, “METHODS OF USE OF T-TYPE CALCIUM CHANNEL MODULATORS” (Praxis Precision Medicines, Inc., priority 2022, published 2025).

Tested on: adult patients with essential tremor
Assay: Example 16: accelerometer-based (Kinesia ONE) TETRAS upper limb score
Assay type: in vivo, human
Conditions: Part B, baseline upper limb score ≥10; for Accelerometer-Based Upper Limb Score, Change from Baseline, Mean (SD) / Accelerometer-Based Upper Limb Score, Change from Baseline, Median / Accelerometer-Based Upper Limb Score, Mean (SD) / Accelerometer-Based Upper Limb Score, Median / Accelerometer-Based Upper Limb Score, Percentage Change from Baseline in Tremor Amplitude, Mean (SD) / Accelerometer-Based Upper Limb Score, Percentage Change from Baseline in Tremor Amplitude, Median / Accelerometer-Based Upper Limb Score, Change from Randomization, LS Mean (SE) / Accelerometer-Based Upper Limb Score, Change from Randomization, Mean (SD) / Accelerometer-Based Upper Limb Score, Change from Randomization, Median / Accelerometer-Based Upper Limb Score, LS Mean Percentage Change in Tremor Amplitude from Randomization / Accelerometer-Based Upper Limb Score, Percentage Change from Randomization in Tremor Amplitude, Mean (SD) / Accelerometer-Based Upper Limb Score, Percentage Change from Randomization in Tremor Amplitude, Median: Formula (I) arm (N = 4)
Description: Accelerometer (Kinesia ONE) TETRAS assessments were generally consistent with those conducted at the clinic. Accelerometer upper limb score values are summarized for Part A, the open-label titration phase of Part B, and the randomized withdrawal phase of Part B in Table 37, Table 38, and Table 39, respectively

[1] = Day 42 Post - dose (Randomization Baseline)

CC(C)(C)NC(=O)CN1CCC(CNC(=O)c2cc(F)cc(Cl)c2)CC1 [compound of formula (I), N-((1-(2-(tert-butylamino)-2-oxoethyl)piperidin-4-yl)methyl)-3-chloro-5-fluorobenzamide]
Accelerometer-Based Upper Limb Score, Change from Baseline, Mean (SD) (Day 1, Post - dose): −0.45 (1.476) | Accelerometer-Based Upper Limb Score, Change from Baseline, Median (Day 1, Post - dose): −0.83 | Accelerometer-Based Upper Limb Score, Mean (SD) (Day 1, Post - dose): 10.46 (2.611) | Accelerometer-Based Upper Limb Score, Median (Day 1, Post - dose): 11.50 | Accelerometer-Based Upper Limb Score, Percentage Change from Baseline in Tremor Amplitude, Mean (SD) (Day 1, Post - dose): −7.70 (24.390) % | Accelerometer-Based Upper Limb Score, Percentage Change from Baseline in Tremor Amplitude, Median (Day 1, Post - dose): −14.36% | Accelerometer-Based Upper Limb Score, Change from Baseline, Mean (SD) (Day 7): −1.48 (0.814) | Accelerometer-Based Upper Limb Score, Change from Baseline, Median (Day 7): −1.85 | Accelerometer-Based Upper Limb Score, Mean (SD) (Day 7): 9.67 (3.386) | Accelerometer-Based Upper Limb Score, Median (Day 7): 11.10 | Accelerometer-Based Upper Limb Score, Percentage Change from Baseline in Tremor Amplitude, Mean (SD) (Day 7): −24.14 (12.303) % | Accelerometer-Based Upper Limb Score, Percentage Change from Baseline in Tremor Amplitude, Median (Day 7): −29.88% | Accelerometer-Based Upper Limb Score, Change from Baseline, Mean (SD) (Day 21): −0.56 (1.181) | Accelerometer-Based Upper Limb Score, Change from Baseline, Median (Day 21): −0.55 | Accelerometer-Based Upper Limb Score, Mean (SD) (Day 21): 10.35 (3.035) | Accelerometer-Based Upper Limb Score, Median (Day 21): 11.48 | Accelerometer-Based Upper Limb Score, Percentage Change from Baseline in Tremor Amplitude, Mean (SD) (Day 21): −9.09 (19.622) % | Accelerometer-Based Upper Limb Score, Percentage Change from Baseline in Tremor Amplitude, Median (Day 21): −9.68% | Accelerometer-Based Upper Limb Score, Change from Baseline, Mean (SD) (Day 42, Post - dose): −0.46 (1.605) | Accelerometer-Based Upper Limb Score, Change from Baseline, Median (Day 42, Post - dose): −0.23 | Accelerometer-Based Upper Limb Score, Percentage Change from Baseline in Tremor Amplitude, Mean (SD) (Day 42, Post - dose): −6.66 (25.539) % | Accelerometer-Based Upper Limb Score, Percentage Change from Baseline in Tremor Amplitude, Median (Day 42, Post - dose): −3.87% | Accelerometer-Based Upper Limb Score, Change from Baseline, Mean (SD) (Day 42, Pre - dose): 0.02 (1.702) | Accelerometer-Based Upper Limb Score, Change from Baseline, Median (Day 42, Pre - dose): 0.05 | Accelerometer-Based Upper Limb Score, Mean (SD) (Day 42, Pre - dose): 10.94 (0.884) | Accelerometer-Based Upper Limb Score, Median (Day 42, Pre - dose): 11.23 | Accelerometer-Based Upper Limb Score, Percentage Change from Baseline in Tremor Amplitude, Mean (SD) (Day 42, Pre - dose): 0.39 (28.120) % | Accelerometer-Based Upper Limb Score, Percentage Change from Baseline in Tremor Amplitude, Median (Day 42, Pre - dose): 0.78% | Accelerometer-Based Upper Limb Score, Mean (SD) [1]: 10.45 (1.616) | Accelerometer-Based Upper Limb Score, Median [1]: 10.88 | Accelerometer-Based Upper Limb Score, Change from Baseline, Mean (SD) (Day 56): −0.35 (3.213) | Accelerometer-Based Upper Limb Score, Change from Baseline, Median (Day 56): 0.62 | Accelerometer-Based Upper Limb Score, Change from Randomization, LS Mean (SE) (Day 56): 0.071 (1.3594) | Accelerometer-Based Upper Limb Score, Change from Randomization, Mean (SD) (Day 56): 0.11 (1.662) | Accelerometer-Based Upper Limb Score, Change from Randomization, Median (Day 56): 0.70 | Accelerometer-Based Upper Limb Score, LS Mean Percentage Change in Tremor Amplitude from Randomization (Day 56): 1.4% | Accelerometer-Based Upper Limb Score, Mean (SD) (Day 56): 10.56 (2.093) | Accelerometer-Based Upper Limb Score, Median (Day 56): 10.88 | Accelerometer-Based Upper Limb Score, Percentage Change from Baseline in Tremor Amplitude, Mean (SD) (Day 56): −1.64 (43.539) % | Accelerometer-Based Upper Limb Score, Percentage Change from Baseline in Tremor Amplitude, Median (Day 56): 9.78% | Accelerometer-Based Upper Limb Score, Percentage Change from Randomization in Tremor Amplitude, Mean (SD) (Day 56): 2.97 (26.670) % | Accelerometer-Based Upper Limb Score, Percentage Change from Randomization in Tremor Amplitude, Median (Day 56): 12.37% | Accelerometer-Based Upper Limb Score, Change from Randomization, LS Mean (SE) for Difference (Formula (I) - Placebo) (Day 56): −2.321 (1.8339) | Accelerometer-Based Upper Limb Score, Change from Randomization, p-value for LS Mean Difference (Formula (I) - Placebo) (Day 56): 0.2614 | Accelerometer-Based Upper Limb Score, LS Mean Percentage Change Difference (Formula (I) - Placebo) (Day 56): −35.5% | Accelerometer-Based Upper Limb Score, Change from Baseline, Mean (SD) (Day 70): 2.02 (3.694) | Accelerometer-Based Upper Limb Score, Change from Baseline, Median (Day 70): 0.35 | Accelerometer-Based Upper Limb Score, Change from Randomization, LS Mean (SE) (Day 70): 3.223 (1.4066) | Accelerometer-Based Upper Limb Score, Change from Randomization, Mean (SD) (Day 70): 3.02 (2.533) | Accelerometer-Based Upper Limb Score, Change from Randomization, Median (Day 70): 2.00 | Accelerometer-Based Upper Limb Score, LS Mean Percentage Change in Tremor Amplitude from Randomization (Day 70): 46.1% | Accelerometer-Based Upper Limb Score, Mean (SD) (Day 70): 13.17 (0.862) | Accelerometer-Based Upper Limb Score, Median (Day 70): 13.00 | Accelerometer-Based Upper Limb Score, Percentage Change from Baseline in Tremor Amplitude, Mean (SD) (Day 70): 22.11 (42.165) % | Accelerometer-Based Upper Limb Score, Percentage Change from Baseline in Tremor Amplitude, Median (Day 70): 6.50% | Accelerometer-Based Upper Limb Score, Percentage Change from Randomization in Tremor Amplitude, Mean (SD) (Day 70): 39.81 (24.948) % | Accelerometer-Based Upper Limb Score, Percentage Change from Randomization in Tremor Amplitude, Median (Day 70): 31.87%
